Source: patent US20250177419A1, “PHARMACEUTICAL COMPOSITION COMPRISING NICLOSAMIDE OR PHARMACEUTICALLY ACCEPTABLE SALT THEREOF AND PREPARATION METHOD THEREFOR” (WEBIOTREE CO., LTD, priority 2022, published 2025)

Tests used:
[1] = test system: Beta and Omicron variants of SARS-CoV-2; test: Antiviral efficacy test in Vero E6 cells, qRT-PCR viral genome copy; format: cell-based
[2] = test system: SARS-CoV-2 Omicron (B11529); test: Antiviral efficacy test in Vero E6 cells, qRT-PCR viral genome copy, Omicron; format: cell-based

O=C(Nc1ccc([N+](=O)[O-])cc1Cl)c1cc(Cl)ccc1O [niclosamide]
effectiveness in inhibiting viral proliferation compared to remdesivir [1]: over 1.7 times
antiviral efficacy against the Omicron variant compared to the Beta variant [2]: more than four times higher antiviral efficacy
